How the values were obtained:
immune system = assay: Immune parameters and immune function (blastogenesis, mixed lymphocyte response) after JP-8 exposure; format: in vivo, C57B16 mice
Procedure: (§1) At 24 hours after the last exposure, the animals were sacrificed and the effects of exposure on the immune system examined. Immune organs (spleen, thymus, blood, lymph nodes and bone marrow) were recovered and analyzed for effects on organ weight, total cell numbers, immune cell populations (by differentials), and lymphocyte subpopulations (by flow cytometry). Assays were also performed to examine the effects of exposure on immune function. […] Similar effects on immune cell subpopulations were also observed in lymph nodes. In the thymus it appeared that the immature CD4^+ CD8^+ cells were differentially lost due to exposure. […] However, these effects are prevented or ameliorated by treatment of the animals with Substance P.
Blastogenesis and Mixed lymphocyte response (MLR) assays: Blastogenesis and MLR assays are set up in 96 well microtitre plated in replicates of 6. Responder cells are plated at 1×10^5 cells/well and are stimulated as indicated (with either media, alloantigen, growth factors or mitogens). After 72 hours the plates are pulsed with 1 uCi/well of ^3 H-thymidine for 18 hours. The wells are then harvested using a Ph.D. cell harvester, the filters dried and scintillation counting performed. The data is presented as the stimulated dpm and is represented as the stimulation index (SI) (Harris et al., Proc. Natl. Acad Sci. USA 89:10006 (1992)).

[1] = system: immune system organs (spleen, lymph nodes and thymus); assay: Organ Weight and Total Cell Recovery, JP-8 exposed mice; format: in vivo, C57B16 mice; design: Spleen Weight / Thymus Weight: unit not given here
Procedure: as §1
Organ Weight and Total Cell Recovery: For each of the immune system organs (spleen, lymph nodes and thymus) the wet weight is determined after removal using a microbalance. After processing of the organs into single cell suspensions the cell numbers and viabilities are determined using trypan blue staining. Histochemical differentials are performed at this time. Cell numbers and viabilities are again determined after centrifugation of the cell suspensions through density gradients to obtain mononuclear cells.

splenic B cells = assay: Mitogenesis of spleen B cells (lipopolysaccharide, 3H-thymidine) from LP-BM5-infected mice given SP aerosol; format: in vivo, C57BL6 mice; details: LP-BM5 virus + SP aerosol 1 μM
Procedure: (§2) C57BL6 mice, average weight of 25-30 grams, were infected with the LP-BM5 murine leukemia retrovirus to simulate the human AIDS virus. […] The mice were divided into two groups; LP-BM5 virus only and LP-BM5 virus +substance P aerosol therapy at 1 μM concentration. The mice were killed at 4 and 8 weeks post-inoculation.
The proliferation of splenic B and T cells induced by mitogens was determined by incorporation of radioactive thymidine. Splenocytes in 0.1 ml of cell culture medium (1×10^7 cells/ml) were cultured in 96-well flat-bottom cultured plates with ConA and lipopolysaccharide, 5 micrograms/ml). The cells were incubated at 37° C., 5% CO2 incubator for 72 hours for ConA-induced T cell proliferation, and then pulsed with ^3 H-thymidine (1 microCurie/well). After 4 hours for radioactive thymidine uptake, the cells were harvested by a cell sample harvester. Radioactivity was determined by a liquid scintillation counter (Tri-Carb, 2200CA). The T and B cell mitogenesis values were recorded as counts per min in 1×10^7 cells/ml.

[2] = system: LP-BM5 murine leukemia retrovirus; assay: Mouse AIDS model, spleen changes and total cell numbers; format: in vivo, C57BL6 mice
Procedure: as §2

[3] = JP-8 dose 0 + SP or antagonist aerosol
[4] = JP-8 dose 1000 + SP or antagonist aerosol
[5] = JP-8 dose 1000 + nSP (1 nanomolar substance P)
[6] = dose printed 100 + nSP (1 nanomolar substance P)
[7] = 4 weeks after infection, mean (SEM)

Substance P [SP]
deleterious effects of chronic JP-8 jet fuel exposure to the immune system (immune system; Substance P aerosol therapy): reversed and/or prevented
majority of the effects of JP-8 jet fuel exposure on the immune system (immune system; Substance P at both 1 uM and 1 nM doses): could be significantly reversed
effects of JP-8 exposure on all measured immune parameters (immune system; mice exposed to 500, 1000 or 2500 mg aerosolized JP-8, 7 days 1 hour/day, treated with Substance P): invariably reversed the effects on all measured parameters of JP-8 exposure to almost normal levels
BM Cell Number [1, 3]: 9
Spleen Cell Number [1, 3]: 30
Spleen Weight [1, 3]: 0.10
Thymus Cell Number [1, 3]: 18
Thymus Weight [1, 3]: 0.04
BM Cell Number ([1]; JP-8 dose 250 + SP aerosol): 23
Spleen Cell Number ([1]; JP-8 dose 250 + SP aerosol): 40
Spleen Weight ([1]; JP-8 dose 250 + SP aerosol): 0.16
Thymus Cell Number ([1]; JP-8 dose 250 + SP aerosol): 20
Thymus Weight ([1]; JP-8 dose 250 + SP aerosol): 0.06
BM Cell Number [1, 4]: 21
LN Cell Number [1, 4]: 5.0
Spleen Cell Number [1, 4]: 72
Spleen Weight [1, 4]: 0.14
Thymus Cell Number [1, 4]: 78
Thymus Weight [1, 4]: 0.11
BM Cell Number [1, 5]: 31
Thymus Cell Number [1, 5]: 78
Thymus Weight [1, 5]: 0.04
BM Cell Number ([1]; JP-8 dose 2500 + SP aerosol): 19
LN Cell Number ([1]; JP-8 dose 2500 + SP aerosol): 5.0
Spleen Cell Number ([1]; JP-8 dose 2500 + SP aerosol): 87
Spleen Weight ([1]; JP-8 dose 2500 + SP aerosol): 0.10
Thymus Cell Number ([1]; JP-8 dose 2500 + SP aerosol): 96
Thymus Weight ([1]; JP-8 dose 2500 + SP aerosol): 0.08
Spleen Cell Number [1, 6]: 58
Spleen Weight [1, 6]: 0.11
Spleen B Cell Mitogenesis, 24 Hours in Culture (splenic B cells; [7]): 2063 (448) counts per min
Spleen B Cell Mitogenesis, 48 Hours in Culture (splenic B cells; [7]): 1369 (231) counts per min
Spleen B Cell Mitogenesis, 72 hours in culture (splenic B cells; [7]): 1642 (158) counts per min
Spleen B Cell Mitogenesis, 72 hours in culture (splenic B cells; 8 weeks post-infection, not significant): 3227 (854) counts per min
changes in the mouse spleens ([2]; LP-BM5 mouse model, SP aerosol therapy): caused significant changes in the mouse spleens
total cell numbers (spleen) versus LP-BM5 group ([2]; SP+Virus Group, 4 weeks after infection): not accompanied by an increase in total cell numbers

From US5998376A, “Substance P treatment for immunostimulation” (priority 1998, dated 1999)
